According to US20150038545A1, “HYDROXYPHENYL PYRROLE COMPOUNDS CONTAINING AN HYDROXAMIC ACID AS HDAC INHIBITORS AND MEDICINAL APPLICATIONS THEREOF” (UNIVERSIDAD DEL PAÍS VASCO, priority 2011, published 2015):

Tests used:
Human HDAC5 = molecular target: T1, Human HDAC5 (Homo sapiens, UniProt Q9UQL6); assay: In vitro HDAC5 inhibition, fluorogenic peptide assay; type: biochemical; conditions: for IC50: read-out: IC50 (nM) of enzyme activity HDAC5
T1 construct: Full length with Nterminal GST tag, MW=150 kDa; GST (N); purchased BioMol, Hamburg, Germany; host or cells: Sf9 cells, baculovirus
T1 sequence (Q9UQL6 1-1123 isoform Q9UQL6-3): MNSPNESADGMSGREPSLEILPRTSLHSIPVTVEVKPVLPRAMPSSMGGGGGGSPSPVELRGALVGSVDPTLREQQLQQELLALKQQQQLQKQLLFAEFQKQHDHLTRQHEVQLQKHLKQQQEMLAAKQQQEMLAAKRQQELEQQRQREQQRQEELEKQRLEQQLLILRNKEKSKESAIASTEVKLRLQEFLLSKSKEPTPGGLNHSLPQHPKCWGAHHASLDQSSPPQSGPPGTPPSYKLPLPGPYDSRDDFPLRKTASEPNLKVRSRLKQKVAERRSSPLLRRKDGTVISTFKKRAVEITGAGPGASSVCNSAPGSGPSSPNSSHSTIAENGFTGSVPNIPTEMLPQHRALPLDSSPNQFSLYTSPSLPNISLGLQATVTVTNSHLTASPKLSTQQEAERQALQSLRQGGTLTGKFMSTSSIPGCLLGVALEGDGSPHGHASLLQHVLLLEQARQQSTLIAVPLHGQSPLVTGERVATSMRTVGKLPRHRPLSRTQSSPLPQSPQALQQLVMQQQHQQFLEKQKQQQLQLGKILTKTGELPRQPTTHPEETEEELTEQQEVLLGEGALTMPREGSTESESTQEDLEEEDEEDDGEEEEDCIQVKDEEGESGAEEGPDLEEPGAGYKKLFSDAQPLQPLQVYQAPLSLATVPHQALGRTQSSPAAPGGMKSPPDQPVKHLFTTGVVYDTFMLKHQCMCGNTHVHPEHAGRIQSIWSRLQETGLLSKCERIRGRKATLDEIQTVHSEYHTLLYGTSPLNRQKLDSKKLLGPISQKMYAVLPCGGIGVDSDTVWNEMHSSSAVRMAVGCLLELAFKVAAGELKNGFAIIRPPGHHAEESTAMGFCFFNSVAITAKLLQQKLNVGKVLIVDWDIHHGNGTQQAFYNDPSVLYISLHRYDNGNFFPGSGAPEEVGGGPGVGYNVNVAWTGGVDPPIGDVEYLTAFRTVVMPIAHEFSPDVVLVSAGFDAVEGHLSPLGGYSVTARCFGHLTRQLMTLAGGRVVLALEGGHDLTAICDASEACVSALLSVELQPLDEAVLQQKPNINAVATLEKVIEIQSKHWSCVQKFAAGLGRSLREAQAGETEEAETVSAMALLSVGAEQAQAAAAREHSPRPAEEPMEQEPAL
Description: All HDAC assays were performed using acetylated AMC-labeled peptide substrate: • Substrate for isoforms HDAC1, 2, 3, 4, 5, 6, 7, 9, 10, 11 and HeLa nuclear extract assays: Acetylated fluorogenic peptide from p53 residues 379-382 (RHKKAc) (BioMol. Cat. # KI-104). • Substrate for HDAC8 assays: Acetylated fluorogenic peptide from p53 residues 379-382 (RHKAcKAc) (BioMol. Cat. # KI-178).
Enzymes: • HDAC1 assay: 75 nM Human HDAC1 (GenBank Accession No. NM_004964): Full length with C-terminal GST tag, MW=79.9 kDa, expressed by baculovirus expression system in Sf9 cells (BioMol. Cat. # SE-456). • HDAC2 assay: 5 nM Human HDAC2 (GenBank Accession No. Q92769): Full length with C-terminal His tag, MW=60 kDa, expressed by baculovirus expression system in Sf9 cells (BioMol. Cat. # SE-500). • HDAC3 assay: 2.3 nM Human HDAC3/NcoR2 (GenBank Accession No. NM_003883 for HDAC3, GenBank Accession No.NM_006312 for NcoR2): Complex of human HDAC3, full length with C-terminal His tag, MW=49.7 kDa, and human NCOR2, N-terminal GST tag, MW=39 kDa, co-expressed in baculovirus expression system (BioMol. Cat. # SE-507). • HDAC4 assay: 266 nM Human HDAC4 (GenBank Accession No. NM_006037): Amino acids 627-1085 with N-terminal GST tag, MW=75.2 kDa, expressed in baculovirus expression system (BioMol, Hamburg, Germany). • HDAC5 assay: 588 nM Human HDAC5 (GenBank Accession No. NM_001015053): Full length with Nterminal GST tag, MW=150 kDa, expressed by baculovirus expression system in Sf9 cells (BioMol, Hamburg, Germany). • HDAC6 assay: 13 nM Human HDAC6 (GenBank Accession No. BC069243): Full length with N-terminal GST tag, MW=159 kDa, expressed by baculovirus expression system in Sf9 cells (BioMol. Cat. # SE-508). • HDAC7 assay: 962 nM Human HDAC7 (GenBank Accession No. AY302468): Amino acids 518-end with N-terminal GST tag, MW=78 kDa, expressed in baculovirus expression system (BioMol, Hamburg, Germany). • HDAC8 assay: 119 nM Human HDAC8 (GenBank Accession No. NM018486): Full length, MW=42 kDa, expressed in an E. coli expression system (BioMol. […]
The reactions were carried out in a 96-well microplate for fluorometry in a 50 μl reaction volume. […] The reaction was allowed to develop for 45 minutes at 30° C. with 5% CO2; then the fluorescent signal was measured with an excitation wavelength at 360 nm and an emission wavelength at 460 nm in a microplate-reading fluorometer (GeminiXS; Molecular Devices, Sunnyvale, Calif.). […] IC50 was calculated by fitting the experimental data to a dose-response curve. […]

DLD-1 = assay: Cancer cell growth inhibition (CellTiter-Glo), DLD-1; type: cell-based, Human; conditions: Homo sapiens; Colorectal Cancer, DLD-1, 72 h treatment
Description: (§1) Cell culture-based assays were used to evaluate the ability of compounds of the invention to inhibit cancer cell growth.
(§2) Cells were obtained from the American Type Culture Collection (ATCC). Cells were cultured at 37° C. with 5% CO2 in the appropriate growth medium (see table below), and harvested respectively during the logarithmic growth period and counted with hemocytometer. The cell viability was examined by trypan blue exclusion. Cell concentrations were adjusted to 5.56×10^4 cells/ml with respective medium.
(§3) Stock solutions of test compounds and positive drugs Doxorubicin (Zhejiang, Haizheng, China), Cisplatin (Nanjing Zhiyao, China) and Mitomycin (Zhejiang, Haizheng, China) were prepared in dimethyl sulphoxide (DMSO) or PBS at 20 mM.
(§4) In order to determine the IC50 for each compound, experiments were carried out in 96-well plates and the cell lines seeded at a density of 5,000 cells/well. […] All treatments were performed in triplicate. 10 μl of drug solution was added to each well and incubated for 72 hours. At the end of the incubation, 100 μl of the CellTiter-Glo Reagent were added to each well and the contents were mixed for 2 munites on an orbital shaker to induce cell lysis. The plate was incubated at room temperature for 10 minutes to stabilize luminiscent signal, and luminiscent was recorded. […] In order to calculate IC50 values, dose-responsive curves were fitted using nonlinear regression model with a sigmoidal dose response.

A549 = assay: Cancer cell growth inhibition (CellTiter-Glo), A549; type: cell-based, Human; conditions: Homo sapiens; Lung Cancer, A549, 72 h treatment
Description: as §1, §2, §3, §4

BGC-823 = assay: Cancer cell growth inhibition (CellTiter-Glo), BGC-823; type: cell-based, Human; conditions: Homo sapiens; Gastric Cancer, BGC-823, 72 h treatment
Description: as §1, §2, §3, §4

SK-BR-3 = assay: Cancer cell growth inhibition (CellTiter-Glo), SK-BR-3; type: cell-based, Human; conditions: Homo sapiens; Breast Cancer, SK-BR-3, 72 h treatment
Description: as §1, §2, §3, §4

Calu-6 = assay: Cancer cell growth inhibition (CellTiter-Glo), Calu-6; type: cell-based, Human; conditions: Homo sapiens; Lung Cancer, Calu-6, 72 h treatment
Description: as §1, §2, §3, §4

SMILES	Selectivity against HDAC6 (IC50 HDACx/IC50 HDAC6) HDAC5 (Human HDAC5; IC50 HDAC5/IC50 HDAC6)	IC50 (Human HDAC5)	IC50 (DLD-1)	IC50 (A549)	IC50 (BGC-823)	IC50 (SK-BR-3)	IC50 (Calu-6)
COc1ccc(-c2cc(-c3ccccc3)[nH]c2C(=O)NCCCCCC(=O)NO)cc1 [Compound A, N-[6-(hydroxyamino)-6-oxohexyl]-3-(4-methoxyphenyl)-5-phenyl-1H-pyrrole-2-carboxamide, reference compound]	32.7	655 nM	–	–	–	–	–
O=C(CCCCCNC(=O)c1[nH]c(-c2ccccc2)cc1-c1ccc(O)cc1)NO [Example 1, N-(6-(hydroxyamino)-6-oxohexyl)-3-(4-hydroxyphenyl)-5-phenyl-1H-pyrrole-2-carboxamide]	–	–	1.62 µM	4.65 µM	2.16 µM	3.49 µM	2.79 µM
O=C(CCCCCNC(=O)c1[nH]c(-c2ccc(O)cc2)cc1-c1ccccc1)NO [Example 2, N-(6-(hydroxyamino)-6-oxohexyl)-5-(4-hydroxyphenyl)-3-phenyl-1H-pyrrole-2-carboxamide]	–	–	4.19 µM	8.25 µM	11.7 µM	3.37 µM	4.22 µM
O=C(CCCCCNC(=O)c1[nH]c(-c2ccc(O)cc2)cc1-c1ccoc1)NO [Example 5, 3-(3-furyl)-N-(5-(hydroxycarbamoyl)pentyl)-5-(4-hydroxy-phenyl)-1H-pyrrole-2-carboxamide]	–	14 nM	2.51 µM	4.35 µM	23.1 µM	0.43 µM	4.66 µM
O=C(CCCCCNC(=O)c1[nH]c(-c2ccc(O)cc2)cc1-c1ccsc1)NO [Example 6, N-(5-(hydroxycarbamoyl)pentyl)-5-(4-hydroxyphenyl)-3-(3-thienyl)-1H-pyrrole-2-carboxamide]	–	43 nM	3.5 µM	5.39 µM	13.8 µM	1.36 µM	3.46 µM
